From patent publication US8518715B2, “Bifunctional polyazamacrocyclic chelating agents” (Nordion (Canada) Inc., priority 2006, dated 2013)

Key:
Format in all cases: physicochemical
[1] = Effect of [ligand]/[90Y3+] on the percent complexation
Method: (§1) A polyazamacrocyclic ligand ((L)-p-NO2-Bz-PCTA; (D)-p-NO2-Bz-PCTA; (L)-p-NCS-Bz-PCTA; (±)-p-NO2-Bz-DOTA, (±)-NPCTA, (±)-OXO and (L)-p-NO2-Bz-OXO) was combined with a metal ion (^90Y^3+, ^111In^3+, ^177Lu^3+) at room temperature in buffer at a molar ratio of the ligand to the metal ion of 100:1 for kinetic studies, 200:1 for stability studies or at values ranging from 2:1 to 200:1 for the molar ratio studies.
(§2) Complexation studies involving ^90Y^3+ and ^111In^3+ were conducted with 50-100 mM sodium acetate buffer, pH 5.0-7.0, while complexation studies involving ^177Lu^3+ were performed with 50 mM-100 mM sodium acetate buffer, pH 4-5.
(§3) 1 μL samples were taken at 10 minute intervals for kinetic studies, after 60 minutes in experiments studying the effect of the value of [ligand]/[metal ion] on the % complexation of the ligand, and at spaced intervals of 1-3 days for experiments studying the stability of complexes formed using the ligand of the present invention. […] The silica gel paper is cut in half and each half is measured in a gamma well counter. […] Each result shown in FIGS. 4-9 is the average of three separate trials.

[2] = Kinetics of complexation of polyazamacrocyclic ligand with 90Y3+; conditions: ^90Y^3+; for initial rate / kinetics of complexation (in words): ligand:metal 100:1, room temperature; for percent complexation of metal ion (in words): ligand:metal 100:1
Method: as §1, §2, §3

[3] = Kinetics of complexation of polyazamacrocyclic ligand with 177Lu3+; conditions: ^177Lu^3+; for time after which the maximum percent of complexation was observed / percent complexation of metal ion (in words): ligand:metal 100:1; for initial rate / kinetics of complexation (in words): ligand:metal 100:1, room temperature; for percent complexation after 10 minutes: ligand:metal 100:1, 10 minutes
Method: as §1, §2, §3

[4] = Kinetics of complexation of polyazamacrocyclic ligand with 111In3+; conditions: ^111In^3+; for initial rate / kinetics of complexation (in words): ligand:metal 100:1, room temperature
Method: as §1, §2, §3

[5] = Effect of [ligand]/[111In3+] on the percent complexation
Method: as §1, §2, §3

[6] = Effect of [ligand]/[177Lu3+] on the percent complexation
Method: as §1, §2, §3

[7] = molar ratio of ligand/^111In^3+ of 5:1, after 60 minutes

| Compound | percent complexation [5, 7] | percent complexation of metal ion (in words) [2] | percent complexation of metal ion (in words) [3] | percent complexation after 10 minutes [3] | initial rate / kinetics of complexation (in words) [2] | time after which the maximum percent of complexation was observed [3] | initial rate / kinetics of complexation (in words) [3] | initial rate / kinetics of complexation (in words) [4] | also measured |
| --- | --- | --- | --- | --- | --- | --- | --- | --- | --- |
| O=C(O)CN1CCOCCN(CC(=O)O)CCN(CC(=O)O)CC1 (racemic) [(±)-OXO, 2,2′,2″-(1-oxa-4,7,10-triazacyclododecane-4,7,10-triyl)triacetic acid] |  | highest | highest | ~95% |  |  |  | fastest |  |
| O=C(O)CN1CCN(CC(=O)O)CCN(CC(=O)O)C(Cc2ccc([N+](=O)[O-])cc2)CN(CC(=O)O)CC1 (racemic) [(±)-p-NO2-Bz-DOTA, 2,2′,2″,2′″-(2-(4-nitrobenzyl)-1,4,7,10-tetraazacyclododecane-1,4,7,10-tetrayl)tetraacetic acid] | ~94% | highest | highest | ~95% |  | 40 min |  |  | maximum values of complexation after 40 minutes ([4]; ligand:metal 100:1, after 40 minutes): ~89%; percent complexation ([5]; molar ratio of ligand/^111In^3+ of greater than 20:1, after 60 minutes): ≤ 95% |
| O=C(O)CN1CCN(CC(=O)O)C[C@@H](Cc2ccc([N+](=O)[O-])cc2)N(CC(=O)O)Cc2cccc(n2)C1 [(D)-p-NO2-Bz-PCTA, 2,2′,2″-((4R)-4-(4-nitrobenzyl)-3,6,9,15-tetraazabicyclo[9.3.1]pentadeca-1(15),11,13-triene-3,6,9-triyl)triacetic acid] |  |  |  | ~91% |  |  |  |  | percent complexation ([1]; molar ratio of ligand/^90Y^3+ of 10:1, after 60 minutes): ~95%; percent complexation ([5]; molar ratio of ligand/^111In^3+ of 10:1, after 60 minutes): ~95% |
| O=C(O)CN1CCN(CC(=O)O)C[C@H](Cc2ccc([N+](=O)[O-])cc2)N(CC(=O)O)Cc2cccc(n2)C1 [(L)-p-NO2-Bz-PCTA, 2,2′,2″-((4S)-4-(4-nitrobenzyl)-3,6,9,15-tetraazabicyclo[9.3.1]pentadeca-1(15),11,13-triene-3,6,9-triyl)triacetic acid] |  | highest | highest |  | fastest |  | fastest |  | percent complexation after 10 minutes ([2]; ligand:metal 100:1, 10 minutes): 95%; percent complexation after 10 minutes ([4]; ligand:metal 100:1, 10 minutes): ~95%; percent complexation ([6]; molar ratio of ligand/^177Lu^3+ of 5:1, after 60 minutes): ~95% |

More lines, main results first:

| percent complexation [5, 7] | percent complexation of metal ion (in words) [2] | percent complexation of metal ion (in words) [3] | percent complexation after 10 minutes [3] | Compound | initial rate / kinetics of complexation (in words) [2] | time after which the maximum percent of complexation was observed [3] | initial rate / kinetics of complexation (in words) [3] | initial rate / kinetics of complexation (in words) [4] | also measured |
| --- | --- | --- | --- | --- | --- | --- | --- | --- | --- |
| ~76% |  |  |  | COc1ccc([N+](=O)[O-])cc1C(C(=O)O)N1CCN(CC(=O)O)Cc2cccc(n2)CN(CC(=O)O)CC1 (racemic) [(±)-NPCTA, 2,2′-(6-(carboxy(2-methoxy-5-nitrophenyl)methyl)-3,6,9,15-tetraazabicyclo[9.3.1]pentadeca-1(15),11,13-triene-3,9-diyl)diacetic acid] | relatively slower | 50 min | relatively slower | relatively slower | percent complexation ([1]; molar ratio of ligand/^90Y^3+ of greater than 20:1, after 60 minutes): < 90%; percent complexation ([6]; molar ratio of ligand/^177Lu^3+ of greater than 20:1, after 60 minutes): < 95% |
|  | highest | highest |  | O=C(O)CN1CCOCCN(CC(=O)O)[C@@H](Cc2ccc([N+](=O)[O-])cc2)CN(CC(=O)O)CC1 [(L)-p-NO2-Bz-OXO, (S)-2,2′,2″-(5-(4-nitrobenzyl)-1-oxa-4,7,10-triazacyclododecane-4,7,10-triyl)triacetic acid] |  |  | fastest | fastest |  |
